[ ]: non-standard residue; d: D form. Phe(4-NH2) = Nc1ccc(C[C@H](N)C(=O)O)cc1; Phe(4-F) = N[C@@H](Cc1ccc(F)cc1)C(=O)O; Nle = CCCC[C@H](N)C(=O)O
Tests used:
[1] = test system: guinea pig tracheal smooth muscle; assay: Tracheal relaxant activity of VIP analogs on isolated guinea pig tracheal rings; type: cell-based; settings: cumulative concentration response; responses as % of maximum response to VIP (10^-6 M=100%); at least three tissues pooled; linear regression
guinea pigs = assay: In vivo bronchodilator activity by tracheal instillation against histamine-induced bronchoconstriction; set-up: species or system guinea pig; settings: 100 μl, anesthetized male Hartley guinea pigs, histamine challenge 50 μg/kg i.v., inhibition of tracheal pressure increase

Substance	EC50 [1] [nM]	Bronchodilator activity in guinea pigs, ED50 (guinea pigs) [µg]
Ac--[p-F--Phe^6, Glu^8, Lys^12, Nle^17, Ala^25, Leu^26, Lys^27,28, Gly^29,30, Thr^31 ]--VIP (Ac-HSDAV[Phe(4-F)]TENYTKLRKQ[Nle]AVKKYLNALKKGGT-NH2; SMILES CCCC[C@H](NC(=O)[C@H](CCC(N)=O)NC(=O)[C@H](CCCCN)NC(=O)[C@H](CCCNC(=N)N)NC(=O)[C@H](CC(C)C)NC(=O)[C@H](CCCCN)NC(=O)[C@@H](NC(=O)[C@H](Cc1ccc(O)cc1)NC(=O)[C@H](CC(N)=O)NC(=O)[C@H](CCC(=O)O)NC(=O)[C@@H](NC(=O)[C@H](Cc1ccc(F)cc1)NC(=O)[C@@H](NC(=O)[C@H](C)NC(=O)[C@H](CC(=O)O)NC(=O)[C@H](CO)NC(=O)[C@H](Cc1c[nH]cn1)NC(C)=O)C(C)C)[C@@H](C)O)[C@@H](C)O)C(=O)N[C@@H](C)C(=O)N[C@H](C(=O)N[C@@H](CCCCN)C(=O)N[C@@H](CCCCN)C(=O)N[C@@H](Cc1ccc(O)cc1)C(=O)N[C@@H](CC(C)C)C(=O)N[C@@H](CC(N)=O)C(=O)N[C@@H](C)C(=O)N[C@@H](CC(C)C)C(=O)N[C@@H](CCCCN)C(=O)N[C@@H](CCCCN)C(=O)NCC(=O)NCC(=O)N[C@H](C(N)=O)[C@@H](C)O)C(C)C) [Ac--(SEQ ID NO: 17)--NH2]	0.33	0.12
Ac--[p-F--Phe^6, Glu^8, Lys^12, Nle^17, Val^26, Thr^28, Gly^29,30, Thr^31 ]--VIP (Ac-HSDAV[Phe(4-F)]TENYTKLRKQ[Nle]AVKKYLNSVLTGGT-NH2; SMILES CCCC[C@H](NC(=O)[C@H](CCC(N)=O)NC(=O)[C@H](CCCCN)NC(=O)[C@H](CCCNC(=N)N)NC(=O)[C@H](CC(C)C)NC(=O)[C@H](CCCCN)NC(=O)[C@@H](NC(=O)[C@H](Cc1ccc(O)cc1)NC(=O)[C@H](CC(N)=O)NC(=O)[C@H](CCC(=O)O)NC(=O)[C@@H](NC(=O)[C@H](Cc1ccc(F)cc1)NC(=O)[C@@H](NC(=O)[C@H](C)NC(=O)[C@H](CC(=O)O)NC(=O)[C@H](CO)NC(=O)[C@H](Cc1c[nH]cn1)NC(C)=O)C(C)C)[C@@H](C)O)[C@@H](C)O)C(=O)N[C@@H](C)C(=O)N[C@H](C(=O)N[C@@H](CCCCN)C(=O)N[C@@H](CCCCN)C(=O)N[C@@H](Cc1ccc(O)cc1)C(=O)N[C@@H](CC(C)C)C(=O)N[C@@H](CC(N)=O)C(=O)N[C@@H](CO)C(=O)N[C@H](C(=O)N[C@@H](CC(C)C)C(=O)N[C@H](C(=O)NCC(=O)NCC(=O)N[C@H](C(N)=O)[C@@H](C)O)[C@@H](C)O)C(C)C)C(C)C) [Ac--(SEQ ID NO: 14)--NH2]	0.32	0.1
Ac--[p-F--Phe^6, p-NH2 --Phe^10, Lys^12, Nle^17, Val^26, Thr^28 ]--VIP (Ac-HSDAV[Phe(4-F)]TDN[Phe(4-NH2)]TKLRKQ[Nle]AVKKYLNSVLT-NH2; SMILES CCCC[C@H](NC(=O)[C@H](CCC(N)=O)NC(=O)[C@H](CCCCN)NC(=O)[C@H](CCCNC(=N)N)NC(=O)[C@H](CC(C)C)NC(=O)[C@H](CCCCN)NC(=O)[C@@H](NC(=O)[C@H](Cc1ccc(N)cc1)NC(=O)[C@H](CC(N)=O)NC(=O)[C@H](CC(=O)O)NC(=O)[C@@H](NC(=O)[C@H](Cc1ccc(F)cc1)NC(=O)[C@@H](NC(=O)[C@H](C)NC(=O)[C@H](CC(=O)O)NC(=O)[C@H](CO)NC(=O)[C@H](Cc1c[nH]cn1)NC(C)=O)C(C)C)[C@@H](C)O)[C@@H](C)O)C(=O)N[C@@H](C)C(=O)N[C@H](C(=O)N[C@@H](CCCCN)C(=O)N[C@@H](CCCCN)C(=O)N[C@@H](Cc1ccc(O)cc1)C(=O)N[C@@H](CC(C)C)C(=O)N[C@@H](CC(N)=O)C(=O)N[C@@H](CO)C(=O)N[C@H](C(=O)N[C@@H](CC(C)C)C(=O)N[C@H](C(N)=O)[C@@H](C)O)C(C)C)C(C)C) [Ac--(SEQ ID NO: 68)--NH2]	1.2	3.0
Ac--[p-NH2 --Phe^10, Lys^12, Nle^17, Val^26, Thr^28 ]--VIP (Ac-HSDAVFTDN[Phe(4-NH2)]TKLRKQ[Nle]AVKKYLNSVLT-NH2; SMILES CCCC[C@H](NC(=O)[C@H](CCC(N)=O)NC(=O)[C@H](CCCCN)NC(=O)[C@H](CCCNC(=N)N)NC(=O)[C@H](CC(C)C)NC(=O)[C@H](CCCCN)NC(=O)[C@@H](NC(=O)[C@H](Cc1ccc(N)cc1)NC(=O)[C@H](CC(N)=O)NC(=O)[C@H](CC(=O)O)NC(=O)[C@@H](NC(=O)[C@H](Cc1ccccc1)NC(=O)[C@@H](NC(=O)[C@H](C)NC(=O)[C@H](CC(=O)O)NC(=O)[C@H](CO)NC(=O)[C@H](Cc1c[nH]cn1)NC(C)=O)C(C)C)[C@@H](C)O)[C@@H](C)O)C(=O)N[C@@H](C)C(=O)N[C@H](C(=O)N[C@@H](CCCCN)C(=O)N[C@@H](CCCCN)C(=O)N[C@@H](Cc1ccc(O)cc1)C(=O)N[C@@H](CC(C)C)C(=O)N[C@@H](CC(N)=O)C(=O)N[C@@H](CO)C(=O)N[C@H](C(=O)N[C@@H](CC(C)C)C(=O)N[C@H](C(N)=O)[C@@H](C)O)C(C)C)C(C)C) [Ac--(SEQ ID NO: 54)--NH2]	0.36	2.0
